Assay results from US20110144014A1, “CYTOKINE RECEPTOR MODULATORS AND USES THEREOF” (CENTRE HOSPITALIER UNIVERSITAIRE SAINTE-JUSTINE, priority 2005, published 2011).
Where a SMILES comes first, the peptide text is derived from it. [ ]: non-standard residue; d: D form.

Tests used:
IL-1R/IL-1RacP = target: T1, IL-1R/IL-1RacP (Rattus norvegicus, UniProt Q02955+Q63621); experiment: IL-1β induced hypotension in rats; assay type: in vivo
T1 construct: 300 g Sprague-Dawley rats were anesthetized with isoflurane; from tissue; host or cells: whole animal (Sprague-Dawley rat)
T1 sequence (Q02955 20-576): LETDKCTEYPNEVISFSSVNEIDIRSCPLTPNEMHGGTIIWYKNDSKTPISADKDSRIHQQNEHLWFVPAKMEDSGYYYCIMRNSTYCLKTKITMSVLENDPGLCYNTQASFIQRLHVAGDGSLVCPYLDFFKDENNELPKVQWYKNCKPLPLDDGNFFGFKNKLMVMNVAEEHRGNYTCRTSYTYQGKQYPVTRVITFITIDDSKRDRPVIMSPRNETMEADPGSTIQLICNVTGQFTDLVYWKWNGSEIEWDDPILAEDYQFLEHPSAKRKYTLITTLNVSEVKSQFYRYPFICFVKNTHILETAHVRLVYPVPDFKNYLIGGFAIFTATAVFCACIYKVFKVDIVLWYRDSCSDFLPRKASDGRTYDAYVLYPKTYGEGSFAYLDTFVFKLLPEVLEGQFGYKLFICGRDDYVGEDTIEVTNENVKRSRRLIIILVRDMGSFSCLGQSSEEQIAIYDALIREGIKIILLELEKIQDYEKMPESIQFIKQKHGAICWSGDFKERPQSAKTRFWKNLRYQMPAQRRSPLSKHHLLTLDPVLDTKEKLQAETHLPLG
T1 sequence (Q63621 21-570): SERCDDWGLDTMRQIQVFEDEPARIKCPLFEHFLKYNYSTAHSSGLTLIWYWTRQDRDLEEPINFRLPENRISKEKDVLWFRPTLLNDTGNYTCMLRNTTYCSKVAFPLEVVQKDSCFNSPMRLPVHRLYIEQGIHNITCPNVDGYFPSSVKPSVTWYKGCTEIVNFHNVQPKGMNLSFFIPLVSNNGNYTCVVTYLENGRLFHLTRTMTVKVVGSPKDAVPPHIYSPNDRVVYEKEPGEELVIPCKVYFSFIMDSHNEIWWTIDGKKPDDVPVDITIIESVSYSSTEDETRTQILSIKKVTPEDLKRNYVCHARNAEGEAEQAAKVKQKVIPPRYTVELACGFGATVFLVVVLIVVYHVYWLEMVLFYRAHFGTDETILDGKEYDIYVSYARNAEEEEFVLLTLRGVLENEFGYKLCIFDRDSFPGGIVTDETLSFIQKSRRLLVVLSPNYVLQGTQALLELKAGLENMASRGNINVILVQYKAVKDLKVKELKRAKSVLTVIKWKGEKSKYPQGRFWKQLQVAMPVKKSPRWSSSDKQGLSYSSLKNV
Procedure: The goal of the next experiment was to verify whether the identified peptides can reverse the physiological actions of the natural cytokine in vivo either by injecting them through the jugular or directly in the stomach (to verify the stability of the peptide through the digestive tractus). 300 g Sprague-Dawley rats were anesthetized with isoflurane (2.5-4%). IL-1β was injected through the jugular. Blood was taken from the carotid for further analyses before and after (10 minutes) every injection. Peptides were then injected either directly in the stomach with a catheter or in the jugular at the concentration desired. Arterial blood pressure and other physiological characteristics were monitored at all times.
The API-101 derivatives, API-101.10 (and others) were also tested to assess whether they could reverse the physiological actions of the natural ligand in vivo by injecting the derivative through the jugular or directly into the stomach (to verify the stability of the peptide through the digestive tract). […] Arterial blood pressure and heart rate were continuously monitored (Gould) while temperature and blood gases (Radiometer) were measured for routine analysis as previously described (Li et al., Am. J. Physiol. 273:R1283-R1290, 1997; Hardy et al., Pediatr. Res. 46:375-382, 1999; Najarian et al., Circ. Res. 87:1149-1156, 2000). […]

IL-1R = target: T2, IL-1R (Rattus norvegicus, UniProt Q02955); experiment: Cross-linking and radioligand binding of I125-API-101.10 on thymocytes
T2 construct: Thymocytes freshly isolated from rat thymus; endogenous in cells; host or cells: freshly isolated rat thymocytes
T2 sequence (Q02955 20-576): T1 sequence (Q02955 20-576)
T2 sequence (Q63621 21-570 partner): T1 sequence (Q63621 21-570)
Source text: Thymocytes freshly isolated from rat thymus were resuspended at a concentration of 10^7 cell/ml in PBS (phosphate buffered saline) buffer pH 8.0 (reaction buffer) and washed three times with ice-cold reaction buffer. The reaction mixture for each sample contained: 10^6 cells and 10^7 cpm of 125API-101.10. One sample also contained […] of cold API-101.10 peptide. In the negative control HEK-293 cells containing a negligible amount of IL-1R were used. Each sample volume was then raised to 250 μl with reaction buffer. Samples were incubated at room temperature and/or 37° for 45 minutes to allow peptide binding. The non-permeable cross-linker BS3 (Bis(sulfosuccinimidyl)suberate) was then added to a final concentration of 2.5 mM and samples were incubated at 4° C. for 30 minutes to minimize active internalization of BS3 (11.4 Å) (Pierce) (Partis, J. Prot. Chem. 293:263-277, 1983; Cox et al., J. Immunol. 145:1719-1726, 1990; and Knoller et al., J. Biol. Chem. 266:2795-2804, 1991). The reaction was quenched with 20 mM TRIS pH 7.5 for 15 minutes at room temperature. Cells were centrifuged at 4000 rpm for 10 minutes, lysed for 30 minutes on ice with 150 μl of RIPA buffer (50 mM Tris HCl pH7.4; 150 mM NaCl; 1 mM EDTA; 2 mM Na3VO4; 1 mM NaF; 1% NP-40; 0.25% Nadeoxycholate). […] Radioactivity was determined is every cell lysate with a Packard CobraII autogamma counter.

- reduction of IL-1β induced hypotension (IL-1R/IL-1RacP; directly into the stomach, 10^−5M): 60%
- prevention of IL-1β induced hypotension (IL-1R/IL-1RacP; jugular vein injection, 10^−8M, IL-1β 5 μg/kg): 95%
- displacement of radioactive IL-1α (IL-1R; I125-IL-1α 100 pM, 101.10 500 nM): unable to displace
- displacement of 125I-API-101.10 by non-radioactive peptide (IL-1R; cross-linking, autoradiogram): displace almost all
SMILES: CC(C)C[C@@H](NC(=O)[C@@H](CCC(=O)O)NC(=O)[C@H](NC(=O)[C@H](NC(=O)[C@@H](Cc1ccc(O)cc1)NC(=O)[C@H](N)CCCNC(=N)N)[C@H](C)O)C(C)C)C(=O)N[C@H](C)C(N)=O [API-101.10, RYTVELA] (H-[dR][dY][dT][dV][dE][dL][dA]-NH2; N-terminus and C-terminus assumed)
